# Target: SARS-CoV-2 3CLpro (Severe acute respiratory syndrome coronavirus 2, UniProt P0DTD1)
# Assay: biochemical
# Conditions: for inhibition at 50 µM: single point, 50 μM compound
Structure (SMILES),IC50 [µM],inhibition at 50 µM [%]
CC[C@H](C)N(Cc1cccc(OC)c1)C[C@@H](O)COc1ccc(OC)cc1 [Compound 1],8.98 ± 0.57,85.4
CC[C@H](C)[C@H](NC(=O)c1ccc2nc(-n3cccc3)sc2c1)C(=O)NCc1cccnc1 [Compound 5],8.5 ± 0.26,84
COc1cc(-c2nc3cnccn3c2Nc2cccc(Cl)c2)ccc1O [Compound 10],9.08 ± 0.56,78
CCOc1ccc(NC(=O)C(CC(C)C)NC(=O)C2CCC(C)CC2)cc1 (stereo not drawn) [Compound 34],6.12 ± 0.42,78.3
COc1ccc(NC(=O)c2ccccc2NC(=O)c2ccc([N+](=O)[O-])c(C)c2)cc1 [Compound 36],4.47 ± 0.39,81.9
CCC(CC)C(=O)Nc1cccc(C(=O)Nc2ccccc2C(=O)Nc2ccc(OC)cc2)c1 [Compound 43],6.99 ± 0.62,84.8
